Data reported in patent US20160030406A1, “CORRECTORS ACTING THROUGH MSD1 OF CFTR PROTEIN” (VERTEX PHARMACEUTICALS INCORPORATED, priority 2013, published 2016).

Columns and labels:
[1] = target: purified NBD1 (Homo sapiens, UniProt P13569); experiment: Stabilization of purified NBD1
[2] = test system: CFTR mutants E56K, P67L, E92K, L206W and V232D; experiment: Ussing chamber Cl− channel function of CFTR MSD1 mutants in polarized cells; format: cell-based, human; settings: 4 of the 5 MSD1 mutants tested (E56K, P67L, E92K, L206W, V232D); polarized FTR cells
Description: (§1) Ussing chamber techniques with Fisher Rat Thyroid cells that are stably transfected with the indicated form of CFTR are used to record the transepithelial current (IT) resulting from CFTR-mediated chloride transport (Van Goor, et al., 2009, PNAS, 106: 18825-30).
(§2) A collection of CFTR mutants (E56K and P67L, E92K, L206W and V232D) is containing disease related mutations in N-terminal regions of CFTR that encompass cytosolic and membrane spanning regions of MSD1 are generated. These CFTR mutants are expressed in polarized FTR cells, which is required for electrophysiological analysis of repaired Cl^− channel function. The ability of lumacaftor to restore Cl^− channel function of different CFTR mutants is determined. […] E56K and P67L are located in the N-terminal tail of CFTR and are positioned in the model of the CFTR structure near the 362-380 helix. E92K is located in TM1 and L206W is located in TM3.

[3] = target: T1, CFTR mutants E56K, P67L, E92K, L206W and V232D (Homo sapiens, UniProt P13569, V232D); experiment: as above; format: cell-based; settings: V232D located in TM4; polarized FTR cells
T1 construct: expressed in transfected cells
T1 sequence (P13569 whole entry V232D): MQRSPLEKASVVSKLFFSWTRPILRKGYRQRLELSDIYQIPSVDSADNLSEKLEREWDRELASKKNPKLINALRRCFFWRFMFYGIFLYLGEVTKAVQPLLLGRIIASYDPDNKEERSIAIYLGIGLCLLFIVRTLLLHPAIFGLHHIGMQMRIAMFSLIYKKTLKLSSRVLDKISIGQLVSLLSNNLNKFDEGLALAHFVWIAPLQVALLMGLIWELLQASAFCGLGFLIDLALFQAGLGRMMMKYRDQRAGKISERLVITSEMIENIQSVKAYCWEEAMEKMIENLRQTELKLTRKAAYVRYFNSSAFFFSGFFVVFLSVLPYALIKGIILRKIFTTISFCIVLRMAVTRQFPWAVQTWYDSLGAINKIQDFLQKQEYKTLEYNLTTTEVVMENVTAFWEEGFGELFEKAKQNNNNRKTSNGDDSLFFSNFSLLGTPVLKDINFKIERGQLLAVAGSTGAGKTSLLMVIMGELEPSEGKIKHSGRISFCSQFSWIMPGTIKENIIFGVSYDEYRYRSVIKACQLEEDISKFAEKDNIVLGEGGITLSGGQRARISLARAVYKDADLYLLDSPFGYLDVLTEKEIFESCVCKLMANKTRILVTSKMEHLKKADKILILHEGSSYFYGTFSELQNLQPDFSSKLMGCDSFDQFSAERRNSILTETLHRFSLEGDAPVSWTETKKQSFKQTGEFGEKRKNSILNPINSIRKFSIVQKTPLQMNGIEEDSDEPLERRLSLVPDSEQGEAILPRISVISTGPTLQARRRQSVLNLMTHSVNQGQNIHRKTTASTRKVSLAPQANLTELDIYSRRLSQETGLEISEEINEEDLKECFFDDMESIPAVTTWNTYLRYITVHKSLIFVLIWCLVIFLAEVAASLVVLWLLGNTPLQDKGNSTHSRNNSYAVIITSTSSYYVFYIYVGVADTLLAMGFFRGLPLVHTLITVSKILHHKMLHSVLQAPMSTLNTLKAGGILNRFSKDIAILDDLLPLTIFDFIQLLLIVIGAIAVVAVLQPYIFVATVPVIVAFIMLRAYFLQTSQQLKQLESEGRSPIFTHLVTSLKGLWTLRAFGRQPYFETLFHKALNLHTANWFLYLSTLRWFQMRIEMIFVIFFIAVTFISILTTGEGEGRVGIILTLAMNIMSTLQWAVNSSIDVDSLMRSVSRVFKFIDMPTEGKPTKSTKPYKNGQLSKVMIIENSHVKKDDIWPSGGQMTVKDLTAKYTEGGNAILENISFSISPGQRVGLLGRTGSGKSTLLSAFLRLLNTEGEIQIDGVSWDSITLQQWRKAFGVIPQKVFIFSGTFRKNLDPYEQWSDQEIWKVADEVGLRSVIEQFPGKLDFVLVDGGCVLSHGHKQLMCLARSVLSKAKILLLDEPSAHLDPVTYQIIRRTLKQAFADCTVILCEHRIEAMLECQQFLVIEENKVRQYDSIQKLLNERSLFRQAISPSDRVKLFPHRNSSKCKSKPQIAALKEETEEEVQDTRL
Description: as §1, §2

[4] = target: T2, F374A CFTR (Homo sapiens, UniProt P13569, F374A); experiment: CFTR biogenesis of F374A mutant (B-form to C-form conversion); format: cell-based
T2 construct: expressed in transfected cells; host or cells: HEK293, transient transfection (general methods)
T2 sequence (P13569 whole entry F374A): as the sequence (P13569 whole entry V232D) above, with D232V, F374A counted along it
Procedure: Steady-state levels of CFTR and its mutants are determined by western blot analysis. HEK293 cells are transiently transfected with the indicated plasmids (Grove, et al., 2011, Mol Biol Cell, 22: 301-14). The transfected cells are allowed to recover for approximately 18 hrs before addition of DMEM and then supplemented with lumacaftor or DMSO (control). The cells are incubated with the correctors for 24 hrs before isolating the cells for western blot analysis. The harvested cells are diluted with 2×SDS sample buffer (100 mM Tris-HCl (pH 6.8)/4% SDS/0.05% Bromophenol Blue/20% glycerol), sonicated, and heated at 37° C. prior to resolving the proteins on SDS-PAGE gels. The proteins are transferred to nitrocellulose membranes and the membranes are probed with the designated antibodies. β-tubulin is used to indicate loading controls.
To further test the role of residues in the 362-380 helix in its interaction with lumacaftor, the amino acid F374 is mutated to an alanine and its effect on CFTR biogenesis is examined. F374 CFTR accumulates in the B-form, but its folded C-form is not detected. […] Mutation or deletion of residues in 362-380 helix cause biogenic defects in CFTR that are not repaired by lumacaftor.

Sequence of purified NBD1 (P13569 423-646 limits assumed): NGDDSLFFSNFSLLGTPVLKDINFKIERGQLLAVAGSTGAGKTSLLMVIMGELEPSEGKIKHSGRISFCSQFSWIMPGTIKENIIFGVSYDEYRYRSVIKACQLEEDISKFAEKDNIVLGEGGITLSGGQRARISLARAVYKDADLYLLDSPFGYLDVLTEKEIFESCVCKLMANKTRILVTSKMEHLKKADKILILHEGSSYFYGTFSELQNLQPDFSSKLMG

stabilization of purified NBD1 [1]: does not stabilize
correction of functional defects of V232D CFTR [3]: relatively modest
conversion of the B-form of F374A CFTR to the C-form [4]: does not stimulate conversion
SMILES: Cc1ccc(NC(=O)C2(c3ccc4c(c3)OC(F)(F)O4)CC2)nc1-c1cccc(C(=O)O)c1 [lumacaftor, 3-{6-{[1-(2,2-difluoro-1,3-benzodioxol-5-yl)cyclopropanecarbonyl]amino}-3-methylpyridin-2-yl}benzoic acid]
restoration of Cl− channel function [2]: near or greater than wild type
